The nature of this data set: Human HepG2 cell viability assay in 384 well format. Type of data set: toxicity, cell-based. The arrangement: dose 125 nL, time 70.5 hour; cytotoxicity at 70.5 h: concentration not given beside the values. The following applies: HepG2 cells, read-out: Inhibition.
Consider `CN(C)C(=O)c1cc2c(s1)CCN(C(=O)CCCN1CCCCC1)C2`, for which the cytotoxicity at 70.5 h is -6.61%.

For `Cc1nc(-c2cc(Cl)c3c(c2)CC(CN)O3)c[nH]1` (stereo not drawn), the cytotoxicity at 70.5 h amounted to 0.0695%.

Consider `CC(=O)N1C[C@H](NS(=O)(=O)N2CCCC2)[C@@H](c2ccc(C)o2)C1`, for which the cytotoxicity at 70.5 h was -7.2%.

As for `CNS(=O)(=O)c1ccc(CN2CCCN(c3ccccc3)CC2)cc1`, the cytotoxicity at 70.5 h worked out at 18%.

Regarding `COc1ccc(C(C(=O)O)N2CCN(C3CCCC3)CC2)cc1C` (stereo not drawn), the cytotoxicity at 70.5 h is -1.67%.

For `CNC(=O)c1cn2cc(-c3cccc(Cl)c3)n(CC=C(C)C)c(=O)c2n1`, the cytotoxicity at 70.5 h was -5.75%.

As for `CCN(Cc1cnn(CC)c1)C(=O)CN1C(=O)CCc2ccccc21`, the cytotoxicity at 70.5 h was -4.74%.

On to `CNc1cc(C)nc(-c2cc(NC)nc3[nH]ccc23)n1`, for which the cytotoxicity at 70.5 h was -8.84%.

Regarding `CSc1ccc(-c2nc(CN3CCC(NC(C)=O)CC3)c(C)o2)cc1`, the cytotoxicity at 70.5 h was -7.12%.

With `CC(C)[C@@H]1CN(c2ncc(F)cn2)C[C@H]1NC(=O)N(C)C`, the cytotoxicity at 70.5 h was -3.08%.

For `Cc1c(O)cccc1C(=O)N1CCCC2(C1)C(=O)N(C)c1ccccc12` (stereo not drawn), the cytotoxicity at 70.5 h was found to be 23%.

`Cc1cc(C)n2nc(CC(=O)N[C@H]3C[C@H]4CN(C)CCN4C3)nc2n1`: the cytotoxicity at 70.5 h was -7.89%.

Turning to `CC(=O)c1ccc(CN2C[C@@H](CN3CCC(O)CC3)[C@@H](CO)C2)cc1`, the cytotoxicity at 70.5 h was -2.46%.

Turning to `Cc1cc(N(C)Cc2ccsc2)n2nc(C)c(C)c2n1`, the cytotoxicity at 70.5 h is -10.9%.

Take `Cc1cc(C)nc(CN(C)C(=O)C(c2cccnc2)N2CCCC2)c1` (stereo not drawn): the cytotoxicity at 70.5 h is -9.19%.

As to `CCCC1(C(=O)O)CCCN(C(=O)c2cc(Cl)ccc2F)C1` (stereo not drawn), the cytotoxicity at 70.5 h is -13.1%.

Take `O=c1[nH]ccn1CCCN1CC=C(c2cnn(-c3ccccc3)c2)CC1`: the cytotoxicity at 70.5 h was -2.11%.

Turning to `CCn1nc(C(C)C)cc1C(=O)N1CC(OCc2ccccc2F)C1`, the cytotoxicity at 70.5 h was 0.716%.

With `CC(C)CS(=O)(=O)CCNc1ncccn1`, the cytotoxicity at 70.5 h was -4.65%.

Turning to `O=C(NCCn1cccc1)C1CCC(=O)N(C2CCCC2)C1` (stereo not drawn), the cytotoxicity at 70.5 h was -8.05%.

Consider `CCN1CCN(CCCNc2ncccn2)CC1`, for which the cytotoxicity at 70.5 h worked out at 9.52%.

On to `c1cn(CCNc2nc(NC3CC3)nc3c2CCNCC3)nn1`, for which the cytotoxicity at 70.5 h is -14.7%.

As for `OCc1cn([C@@H]2c3ccccc3C3(CCNCC3)[C@H]2O)nn1`, the cytotoxicity at 70.5 h was -9%.

Turning to `Cn1ncc2c(N[C@@H]3CS(=O)(=O)C[C@H]3O)nc(C(C)(C)C)nc21`, the cytotoxicity at 70.5 h is -9.52%.

With `Cc1nonc1OCCNC(=O)COc1ccc(Cl)cc1Cl`, the cytotoxicity at 70.5 h was -13.9%.

On to `CNC(=O)[C@@H]1C[C@@H](NC(=O)CSc2ccccc2)CN1C1CCOCC1`, for which the cytotoxicity at 70.5 h is 14.1%.

As for `COc1cc(-c2cc(-c3ccn(C)c3)nc(N)c2C#N)cc(OC)c1O`, the cytotoxicity at 70.5 h is -1.48%.

`CCc1ccc(CN2CCN(C(=O)C(C)C)[C@@H]3CS(=O)(=O)C[C@@H]32)cc1`: the cytotoxicity at 70.5 h was 14.5%.

Take `CCn1nc(C)c(C(C)NC(=O)c2cccc(NCC(=O)O)c2)c1C` (stereo not drawn): the cytotoxicity at 70.5 h is -9.45%.

As to `Cc1n[nH]c(CCC(=O)N2CCOC(Cc3ccccc3)C2)c1C` (stereo not drawn), the cytotoxicity at 70.5 h was -7.3%.

In the case of `CNc1ncc(CN(C)C(=O)c2cccc(-n3cccn3)c2)cn1`, the cytotoxicity at 70.5 h is -6.94%.

With `O=C1CC(NS(=O)(=O)NCc2ccccc2)CN1c1ccccc1Cl` (stereo not drawn), the cytotoxicity at 70.5 h was determined as 5.29%.

As for `OC1(CN(Cc2cccnc2)C2CCCCC2)CNCCOC1` (stereo not drawn), the cytotoxicity at 70.5 h is -2.72%.

Take `CCn1c(C)nnc1SCCNc1nc(C)nc2ncccc12`: the cytotoxicity at 70.5 h was -15.7%.

`CN(C)CCNC(=O)c1cc2n(n1)CCN(C(=O)c1ccco1)C2`: the cytotoxicity at 70.5 h was -5.47%.

Regarding `CC(C)n1cnnc1CN(C)Cc1cnc(-c2ccco2)nc1`, the cytotoxicity at 70.5 h is -1.59%.

`COCCN(C)CCN1CC2(CCN(C3CCOCC3)CC2)OC1=O`: the cytotoxicity at 70.5 h was found to be 20.5%.

On to `Cc1ccc(-c2cc(C(=O)N3CCCC3c3cccnc3)[nH]n2)o1` (stereo not drawn), for which the cytotoxicity at 70.5 h was -4.23%.

On to `CC(=O)c1cnc(NCCN2CCCC(c3ccccc3)C2)nc1C` (stereo not drawn), for which the cytotoxicity at 70.5 h was determined as 14.2%.

Turning to `Cc1c[nH]c(CN(C)C(C(=O)O)c2c(F)cccc2Cl)n1` (stereo not drawn), the cytotoxicity at 70.5 h was 1.26%.

Regarding `O=C(c1ccnc(N2CCOC(c3ccc(Cl)cc3)C2)c1)N1CCCC1` (stereo not drawn), the cytotoxicity at 70.5 h was -15.4%.

On to `CCn1c(C)cc(C(=O)N2CCCC(C(=O)c3nccn3C)C2)c1C` (stereo not drawn), for which the cytotoxicity at 70.5 h was 19.6%.

Regarding `Cn1ccnc1C1CCN(C(=O)COCC(F)(F)C(F)F)CC1`, the cytotoxicity at 70.5 h was -14.1%.

In the case of `CCCn1cnnc1CNC1CSCCSC1`, the cytotoxicity at 70.5 h is -9.24%.

Take `Nc1ccnc(N2CCC(c3nccn3CC3CC3)CC2)n1`: the cytotoxicity at 70.5 h worked out at 17.6%.

For `CCn1cc(S(=O)(=O)N2CCC3(CCCN(CC4CCC4)C3=O)C2)cn1` (stereo not drawn), the cytotoxicity at 70.5 h is -0.872%.

For `CC(CO)CN(Cc1ccccc1)Cc1c[nH]cn1` (stereo not drawn), the cytotoxicity at 70.5 h was -15.2%.

Turning to `COc1ccc(OCC2CCCN(Cc3ccncc3)C2)cc1` (stereo not drawn), the cytotoxicity at 70.5 h was -12.6%.

For the compound `Cc1cc(C)n(CC(=O)N2CCCCC2CCN(C)C)c(=O)n1` (stereo not drawn), the cytotoxicity at 70.5 h is -7.91%.

Turning to `Cc1cc(C2CCC2)nc(N(C)Cc2cnccn2)n1`, the cytotoxicity at 70.5 h was -6.23%.

For `COCCc1ncc(CN2C[C@@H](C(=O)O)[C@H](C(C)C)C2)cn1`, the cytotoxicity at 70.5 h was 14.1%.

`COCCN(CC1CC1)c1nc(CCN)nc2sc(C)c(C)c12`: the cytotoxicity at 70.5 h was determined as 26.7%.

`COc1cccc(-n2cc(CN(C)Cc3ccnc(C(C)C)n3)cn2)c1`: the cytotoxicity at 70.5 h was -6.06%.

As for `COc1ccc(-c2nc3c([nH]2)CCCNC3=O)cc1OC`, the cytotoxicity at 70.5 h turned out to be 4.81%.

Turning to `CC(C)(CNC1CCCN(Cc2ccccn2)C1)CN1CCOCC1` (stereo not drawn), the cytotoxicity at 70.5 h is -12.6%.

Take `NC(=O)c1cc(-c2cccc(C(=O)O)c2)cs1`: the cytotoxicity at 70.5 h was -15.4%.

Consider `Cc1n[nH]c(C)c1CNC(=O)CSCc1ccccc1Cl`, for which the cytotoxicity at 70.5 h was -0.888%.

For the compound `c1cc2c(cc1Cn1cc(C3CCOC3)nn1)CCCO2` (stereo not drawn), the cytotoxicity at 70.5 h is -13.2%.

In the case of `CC(C)c1ccnc(N[C@H]2COC[C@@H]2N2CCCC2)n1`, the cytotoxicity at 70.5 h is -15.2%.

For the compound `COc1cc(NC2CCS(=O)(=O)C2)ncn1` (stereo not drawn), the cytotoxicity at 70.5 h is -17.8%.

`Cc1cc(N2CCC3(CCC(=O)N(CCO)C3)CC2)nc(N(C)C)n1`: the cytotoxicity at 70.5 h is -3.81%.

`Cc1noc(CC2CCN(C(=O)C(c3ccccc3C)N(C)C)CC2)n1` (stereo not drawn): the cytotoxicity at 70.5 h was -12.1%.

`CN(Cc1ccon1)C(=O)C1CC(=O)N(Cc2cccnc2)C1` (stereo not drawn): the cytotoxicity at 70.5 h was -7.61%.

Take `COc1ccc(-c2cn(CCSc3ncn[nH]3)nn2)cn1`: the cytotoxicity at 70.5 h was -9.67%.

Consider `COCCC1(C(=O)O)CCCN(CC(=O)NCCc2ccccc2)C1` (stereo not drawn), for which the cytotoxicity at 70.5 h amounted to 27.1%.

Turning to `COC(=O)CCCn1ccnc1C(C)c1ccccc1` (stereo not drawn), the cytotoxicity at 70.5 h is -1.4%.

On to `CCC(Nc1nccc(C2CCCC2)n1)c1ccncc1` (stereo not drawn), for which the cytotoxicity at 70.5 h worked out at 3.69%.

Regarding `Cc1noc(C)c1CN1C[C@@H](NS(=O)(=O)N(C)C)[C@H](C(C)C)C1`, the cytotoxicity at 70.5 h was -8.39%.

As to `CN1CC(c2ccccc2)CC12CCN(C(=O)c1ccncc1)CC2` (stereo not drawn), the cytotoxicity at 70.5 h is -2.51%.

For `CN(C)C(=O)CCCNc1ncc2c(n1)CCN2c1ccccc1`, the cytotoxicity at 70.5 h was -7.97%.

In the case of `O=C(Nc1cnc2n1CCCC2)C1CCCN1C1CCNCC1` (stereo not drawn), the cytotoxicity at 70.5 h is -15%.

On to `CC(C)CCC1=NC2(CCN(C(=O)N3CCN(C)CC3)CC2)C(=O)N1`, for which the cytotoxicity at 70.5 h is 2.1%.

Consider `O=C(C1CCCC1)N1CCC(C2CCN(Cc3ccc(Cl)cc3)C2)CC1` (stereo not drawn), for which the cytotoxicity at 70.5 h was -2.34%.

On to `Cc1cc(C(=O)N2CCC(c3nccn3Cc3ccccn3)CC2)no1`, for which the cytotoxicity at 70.5 h is -6.61%.

As for `Cn1ncc(-c2cc(-c3cccc(O)c3)nc(N)c2C#N)c1C1CC1`, the cytotoxicity at 70.5 h was 37.1%.

As for `N#Cc1cc2c(=O)n(CC(O)C(F)(F)F)ccc2[nH]c1=O` (stereo not drawn), the cytotoxicity at 70.5 h came to 3.74%.

`CCOc1ccc(CCCC(=O)N2CC[C@H](NC(C)=O)C2)cc1C`: the cytotoxicity at 70.5 h was -12.4%.

For `CC(NC(=O)C1CCN(C(C)C)CC1)c1nncn1C1CCCC1` (stereo not drawn), the cytotoxicity at 70.5 h is -4.33%.

As to `CN(C)C(=O)c1nc(CN2CC(Cc3ccccc3)CC2=O)no1` (stereo not drawn), the cytotoxicity at 70.5 h is -2.6%.

`COc1cccc(-c2noc3c2CN(c2ncnc4c2CCC4)CC3)c1`: the cytotoxicity at 70.5 h is -6.28%.

Take `CC(C)N(Cc1nccn1C)C(=O)c1cc(Cl)c[nH]c1=O`: the cytotoxicity at 70.5 h was -6.81%.

With `CCNc1nc(C)c(C(=O)N2CCC(C(O)Cc3ccccc3)CC2)s1` (stereo not drawn), the cytotoxicity at 70.5 h was -14.6%.

Turning to `Cc1ccnc(N2C[C@@H]3CC[C@H](C2)N(CC2CCC2)C3=O)n1`, the cytotoxicity at 70.5 h is 9.42%.

In the case of `COc1ncccc1C(=O)N(C)Cc1nc(-c2ccccn2)no1`, the cytotoxicity at 70.5 h was -8.07%.

Consider `CCc1ccc2nc(-c3cnn(C)c3)cc(C(=O)N3CCOCC3)c2c1`, for which the cytotoxicity at 70.5 h was -7.51%.

Regarding `CNc1nc(CN2C[C@@H](NC(C)=O)[C@H](c3ccc(C)o3)C2)cs1`, the cytotoxicity at 70.5 h is -16.5%.

`C[C@@H]1CN(C(=O)CCN2CCCC2)CC[C@@]1(O)C1CCOCC1`: the cytotoxicity at 70.5 h was -6.69%.

Turning to `Cc1nc[nH]c1CN(Cc1ccccc1)Cc1nccs1`, the cytotoxicity at 70.5 h was -6.42%.

Turning to `CC(C)N1CCCC2(CCN(C(=O)CCCn3cccn3)C2)C1=O` (stereo not drawn), the cytotoxicity at 70.5 h came to 6.53%.

As to `CCOc1ccc(C(=O)N(CCOC)Cc2c(C)nn(CC)c2C)o1`, the cytotoxicity at 70.5 h was -6.36%.

Regarding `COc1cc(CN2CCCC(Nc3cccc(F)c3)C2)cc(OC)c1O` (stereo not drawn), the cytotoxicity at 70.5 h was -5.97%.

On to `CN(Cc1cc2n(n1)CCNC2)Cc1n[nH]c2c1CCC2`, for which the cytotoxicity at 70.5 h was -10.9%.

As to `CC(=O)C1(c2ccccc2)CCN(C(=O)CC2CNCCO2)CC1` (stereo not drawn), the cytotoxicity at 70.5 h is -31.5%.

Take `Cc1ccc(-c2cc(CNC(=O)N3CCC(O)CC3)on2)cc1`: the cytotoxicity at 70.5 h is 0.512%.

On to `CC(C)n1ncc2cc(NC(=O)N3CCSCC3)cnc21`, for which the cytotoxicity at 70.5 h was -3.2%.

For the compound `COc1ccc(C(O)CNC(=O)NCc2nc(C)cs2)cc1` (stereo not drawn), the cytotoxicity at 70.5 h is -3.39%.

In the case of `Cc1ccc(C(O)CNC(=O)NCc2csc(C)n2)cc1` (stereo not drawn), the cytotoxicity at 70.5 h is -2.4%.

Take `Cc1csc(N2CCN(C(=O)C(C(C)C)n3cncn3)CC2)n1` (stereo not drawn): the cytotoxicity at 70.5 h was -1.51%.
